Patent US9115151B2, “Substituted 2,10-dihydro-9-oxa-1,2,4A-triazaphenanthren-3-ones and uses thereof” (AbbVie Inc., priority 2012, dated 2015)
Structures can show the parent of a compound that is named as a salt.

Key:
[1] = system: CD3/CD28 induced IL-2 in human T-Blasts; assay: T-Blasts CD3/CD28 induced IL-2 assay; type: cell-based; settings: read-out: CD3/CD28-stimulated IL2 in T-blasts EC50
In short: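 IL-2 in supernatants read after 24 h 37° C stimulation of human PHA T-blasts (2×10^5/well) with anti-CD3/anti-CD28 at 5 μg/mL final. Duplicate eight-point, 1/3-step compound series added 30 min before stimulus; residual cells checked by MTT for toxicity.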

PKCα = target: T1, PKCα (Homo sapiens, UniProt P17252); assay: In vitro enzyme assay (time-resolved fluorescence kinase assay), PKCα, 100 μM ATP; type: biochemical; settings: 100 μM ATP; read-out: PKCα enzyme IC50
T1 construct: His6; purchased Millipore; host or cells: baculovirus in Sf21 cells
In short: (§1)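 Read-out was time-resolved fluorescence, corrected for a minus-enzyme blank and converted to percent activity relative to enzyme without drug. They were stopped with EDTA.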

PKCθ = target: T2, PKCθ (Homo sapiens, UniProt Q04759); assay: In vitro enzyme assay (time-resolved fluorescence kinase assay), PKCθ, 100 μM ATP; type: biochemical
T2 construct: His6; purchased Millipore; host or cells: baculovirus in Sf21 cells
T2 sequence (Q04759 whole entry): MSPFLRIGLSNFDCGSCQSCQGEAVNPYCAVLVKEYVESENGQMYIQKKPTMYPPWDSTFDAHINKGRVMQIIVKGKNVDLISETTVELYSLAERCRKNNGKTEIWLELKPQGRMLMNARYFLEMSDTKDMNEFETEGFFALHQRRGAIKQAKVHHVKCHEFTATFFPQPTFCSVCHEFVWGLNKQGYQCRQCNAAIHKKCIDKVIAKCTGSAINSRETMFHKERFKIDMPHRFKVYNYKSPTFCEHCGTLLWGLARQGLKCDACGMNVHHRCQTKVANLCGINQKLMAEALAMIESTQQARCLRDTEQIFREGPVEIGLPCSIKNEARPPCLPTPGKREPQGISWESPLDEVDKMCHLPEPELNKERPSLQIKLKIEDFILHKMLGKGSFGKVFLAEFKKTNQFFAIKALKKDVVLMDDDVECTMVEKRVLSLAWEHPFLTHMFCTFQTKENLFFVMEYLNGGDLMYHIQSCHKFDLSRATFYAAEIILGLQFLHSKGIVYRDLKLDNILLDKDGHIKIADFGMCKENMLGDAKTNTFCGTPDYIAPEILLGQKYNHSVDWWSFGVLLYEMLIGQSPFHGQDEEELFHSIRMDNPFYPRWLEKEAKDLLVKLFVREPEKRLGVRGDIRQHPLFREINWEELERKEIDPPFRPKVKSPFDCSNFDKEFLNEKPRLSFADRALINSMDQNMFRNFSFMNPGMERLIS
In short: as §1

| Structure (SMILES) | EC50 [1] [nM] | IC50 (PKCα) [nM] | IC50 (PKCθ) [nM] |
| --- | --- | --- | --- |
| CC1C(=O)NN=C2COc3cc(Oc4ccccc4)c(NC4CNC4)cc3N21 (stereo not drawn) [Example 106, 6-(Azetidin-3-ylamino)-4-methyl-7-phenoxy-2,10-dihydro-9-oxa-1,2,4a-triaza-phenanthren-3-one trifluoroacetic acid] | 250 to 1000 | 1000 to 10000 | < 250 |
| Cc1cc2c(cc1N(C)C1CNC1)N1C(=NNC(=O)C1C)CO2 (stereo not drawn) [Example 55, 6-(Azetidin-3-yl-methyl-amino)-4,7-dimethyl-2,10-dihydro-9-oxa-1,2,4a-triaza-phenanthren-3-one trifluoroacetic acid] | 1000 to 10000 | 1000 to 10000 | 250 to 1000 |
| CC1C(=O)NN=C2COc3cc(-c4ccc5scnc5c4)c(NC4CNC4)cc3N21 (racemic) [Example 37] | < 250 | 1000 to 10000 | < 250 |
| Cc1ccc(-c2cc3c(cc2NC2CNC2)N2C(=NNC(=O)C2C)CO3)cc1F (racemic) [Example 18] | < 250 | 1000 to 10000 | < 250 |
| Cc1ccccc1-c1cc2c(cc1N(C)C1(C)CN(C)C1)N1C(=NNC(=O)C1C)CO2 (stereo not drawn) [Example 88] | < 250 | < 250 | < 250 |
| C[C@H](O)CN1CC(C)([C@H](C)c2cc3c(cc2-c2ccccc2F)OCC2=NNC(=O)[C@@H](C)N23)C1 [Example 139, (R)-7-(2-Fluoro-phenyl)-6-{(R)-1-[1-((S)-2-hydroxy-propyl)-3-methyl-azetidin-3-yl]-ethyl}-4-methyl-2,10-dihydro-9-oxa-1,2,4a-triaza-phenanthren-3-one hydrochloric acid] | < 250 | < 250 | < 250 |
| C[C@@H]1C(=O)NN=C2COc3cc(-c4ccccc4F)c([C@@H](C)C4(C)CN(C[C@@H](C)O)C4)cc3N21 [Example 140] | < 250 | 250 to 1000 | < 250 |
| COc1ccccc1-c1cc2c(cc1NC1CNC1)N1C(=NNC(=O)C1C)CO2 (racemic) [Example 34] | 250 to 1000 | 1000 to 10000 | < 250 |
| C[C@@H]1C(=O)NN=C2COc3cc(-c4c(Cl)cccc4N4CCNCC4)ccc3N21 [Example 131] | 250 to 1000 | 1000 to 10000 | < 250 |
| CC1C(=O)NN=C2COc3cc(-c4ccccc4)c(N(C)C4(C)CN(Cc5ccccc5)C4)cc3N21 (stereo not drawn) [Example 92] | < 250 | 250 to 1000 | < 250 |
| CC1C(=O)NN=C2COc3cc(Nc4ccccc4)c(NC4CNC4)cc3N21 (stereo not drawn) [Example 128, 6-(Azetidin-3-ylamino)-4-methyl-7-phenylamino-2,10-dihydro-9-oxa-1,2,4a-triaza-phenanthren-3-one trifluoroacetic acid] | 250 to 1000 | 1000 to 10000 | < 250 |
| CC1C(=O)NN=C2COc3ccc(NC4(C(C)C)CNC4)cc3N21 (stereo not drawn) [Example 113, 9-((3-Isopropylazetidin-3-yl)amino)-1-methyl-3,5-dihydrobenzo[5,6][1,4]oxazino[3,4-c][1,2,4]triazin-2(1H)-one trifluoroacetic acid] | < 250 | 1000 to 10000 | < 250 |
| C[C@@H]1C(=O)NN=C2COc3cc(-c4ccccc4F)c(NC4CNC4)cc3N21 [Example 3] | < 250 | 1000 to 10000 | < 250 |
| CC1C(=O)NN=C2COc3cc(-c4ccc(C(F)(F)F)cc4)c(NC4CNC4)cc3N21 (racemic) [Example 14] | < 250 | 1000 to 10000 | 250 to 1000 |
| CC1C(=O)NN=C2CSc3ccc(NC4CNC4)cc3N21 (stereo not drawn) [Example 97, 6-(Azetidin-3-ylamino)-4-methyl-2,10-dihydro-9-thia-1,2,4a-triaza-phenanthren-3-one hydrochloric acid salt] | < 250 | 1000 to 10000 | < 250 |
| CC1C(=O)NN=C2COc3cc(C(C)C(F)(F)F)c(NC4(C)CNC4)cc3N21 (stereo not drawn) [Example 63] | < 250 | 1000 to 10000 | < 250 |
| C[C@@H]1C(=O)NN=C2COc3cc(-c4c(F)cccc4N4CCNCC4)ccc3N21 [Example 130, (R)-7-(2-Fluoro-6-piperazin-1-yl-phenyl)-4-methyl-2,10-dihydro-9-oxa-1,2,4a-triaza-phenanthren-3-one trifluoroacetic acid] | 250 to 1000 | 1000 to 10000 | 250 to 1000 |

More lines, now with the values ahead:

| EC50 [1] [nM] | IC50 (PKCα) [nM] | IC50 (PKCθ) [nM] | Structure (SMILES) |
| --- | --- | --- | --- |
| < 250 | 1000 to 10000 | < 250 | CC1C(=O)NN=C2COc3cc4c(cc3N21)N(C1(C)CNC1)CC4 (stereo not drawn) [Example 158, 1-Methyl-10-(3-methyl-azetidin-3-yl)-3,5,9,10-tetrahydro-8H-6-oxa-3,4,10,11b-tetraaza-cyclopenta[b]phenanthren-2-one 2,2,2-trifluoroacetate] |
| 250 to 1000 | 1000 to 10000 | < 250 | COCc1ccccc1-c1cc2c(cc1N(C)C1(C)CN(C)C1)N1C(=NNC(=O)[C@H]1C)CO2 [Example 181] |
| < 250 | 1000 to 10000 | < 250 | CC(C)c1cc2c(cc1[C@@H]1CCNC[C@@H]1C)N1C(=NNC(=O)[C@H]1C)CO2 [Example 202] |
| 250 to 1000 | 1000 to 10000 | < 250 | CC1C(=O)NN=C2COc3cc(-c4ccoc4)c(N(C)C4(C)CN(C)C4)cc3N21 (stereo not drawn) [Example 173] |
| < 250 | 1000 to 10000 | < 250 | C[C@@H]1C(=O)NN=C2COc3cc(-c4ccccc4F)c([C@@H]4CCN(CCO)C[C@@H]4C)cc3N21 [Example 206] |
| < 250 | < 250 | < 250 | C[C@@H]1C(=O)NN=C2COc3cc4ccn([C@@]5(C)CCNC5)c4cc3N21 [Example 163, (R)-1-Methyl-10-((S)-3-methyl-pyrrolidin-3-yl)-3,5-dihydro-10H-6-oxa-3,4,10,11b-tetraaza-cyclopenta[b]phenanthren-2-one] |
| 250 to 1000 | 1000 to 10000 | < 250 | CC[C@H]1CN(C)CCN1c1cc2c(cc1-c1ccccc1F)OCC1=NNC(=O)[C@@H](C)N12 [Example 234] |
| 1000 to 10000 | 1000 to 10000 | < 250 | CC1C(=O)NN=C2COc3cc(-c4ccccc4F)c(N4CC5CCC4CN5C)cc3N21 (stereo not drawn) [Example 236] |
| < 250 | 250 to 1000 | < 250 | C[C@@H]1C(=O)NN=C2COc3cc(-c4ccccc4F)c(N4CCNC[C@@H]4C)cc3N21 [Example 224] |
| < 250 | 250 to 1000 | < 250 | CC1C(=O)NN=C2COc3cc(-c4cccc(F)c4)c(N(C)C4(C)CN(C)C4)cc3N21 (stereo not drawn) [Example 169] |
| 250 to 1000 | 1000 to 10000 | < 250 | CC[C@H]1CNCCN1c1cc2c(cc1-c1ccccc1F)OCC1=NNC(=O)[C@@H](C)N12 [Example 227] |
| 250 to 1000 | 1000 to 10000 | < 250 | C[C@@H]1C(=O)NN=C2COc3cc4ccn([C@@H]5CCNC5)c4cc3N21 [Example 151-2, (R)-1-Methyl-10-(R)-pyrrolidin-3-yl-3,5-dihydro-10H-6-oxa-3,4,10,11b-tetraaza-cyclopenta[b]phenanthren-2-one hydrochloric acid] |
| 1000 to 10000 | 1000 to 10000 | 250 to 1000 | C[C@@H]1C(=O)NN=C2COc3cc4c(cc3N21)N([C@@H]1CCNC1)CC4 [Example 153, (R)-1-Methyl-10-(R)-pyrrolidin-3-yl-3,5,9,10-tetrahydro-8H-6-oxa-3,4,10,11b-tetraaza-cyclopenta[b]phenanthren-2-one hydrochloric acid] |
| < 250 | 250 to 1000 | < 250 | Cc1ccc(-c2cc3c(cc2N(C)C2(C)CN(C)C2)N2C(=NNC(=O)C2C)CO3)cc1 (stereo not drawn) [Example 167] |
| < 250 | 1000 to 10000 | < 250 | C[C@@H]1C(=O)NN=C2COc3cc4c(cc3N21)N(C1(C)CNC1)CC4 [Example 159, 1-Methyl-10-(3-methyl-azetidin-3-yl)-3,5,9,10-tetrahydro-8H-6-oxa-3,4,10,11b-tetraaza-cyclopenta[b]phenanthren-2-one hydrochloride] |
| < 250 | 250 to 1000 | < 250 | CC[C@@H]1CN(C)CCN1c1cc2c(cc1-c1ccccc1F)OCC1=NNC(=O)[C@@H](C)N12 [Example 233] |
| < 250 | 250 to 1000 | < 250 | C[C@H]1C(=O)NN=C2COc3cc4ccn([C@@]5(C)CCNC5)c4cc3N21 [Example 162, (S)-1-Methyl-10-((S)-3-methyl-pyrrolidin-3-yl)-3,5-dihydro-10H-6-oxa-3,4,10,11b-tetraaza-cyclopenta[b]phenanthren-2-one] |
| < 250 | 250 to 1000 | < 250 | C[C@@H]1C(=O)NN=C2COc3cc(-c4ccccc4Cl)c(N(C)C4(C)CN(C)C4)cc3N21 [Example 177] |
| 250 to 1000 | 250 to 1000 | < 250 | C[C@@H]1C(=O)NN=C2COc3cc(-c4ccccc4F)c(N(C)C4(C)CN(C5COC5)C4)cc3N21 [Example 194] |
| 250 to 1000 | 1000 to 10000 | < 250 | CC(=O)N1CC(C)(n2ccc3cc4c(cc32)N2C(=NNC(=O)[C@H]2C)CO4)C1 [Example 155, (R)-10-(1-Acetyl-3-methyl-azetidin-3-yl)-1-methyl-3,5-dihydro-10H-6-oxa-3,4,10,11b-tetraaza-cyclopenta[b]phenanthren-2-one hydrochloric acid] |
| 250 to 1000 | 1000 to 10000 | < 250 | C[C@@H]1C(=O)NN=C2COc3cc(C4=CCC(F)(F)CC4)c(N(C)C4(C)CN(C)C4)cc3N21 [Example 182] |
| < 250 | 1000 to 10000 | < 250 | C[C@@H]1C(=O)NN=C2COc3cc(-c4ccccc4CO)c(N(C)C4(C)CN(CCO)C4)cc3N21 [Example 195] |
